Molecular target: T1, ΔF508-CFTR (Homo sapiens, UniProt P13569, DEL508-508)
T1 construct: expressed in transfected cells; host or cells: NIH3T3 mouse fibroblasts stably expressing ΔF508-CFTR for the optical, whole-cell and single-channel assays; Fisher rat epithelial (FRT) cells for Ussing chamber follow-up
Assay: Assays for ΔF508-CFTR correction and potentiator properties (membrane potential optical and electrophysiological methods)
Assay type: cell-based
Settings: CFTR modulation; for % Activity: % Efficacy; for EC50: tested using the above methods
Summary of the method: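 NIH3T3 mouse fibroblasts stably expressing ΔF508-CFTR were used, with membrane potential read by DiSBAC2(3)/CC2-DMPE FRET on VIPR. Correctors: 16 h compound exposure at 37 °C, then activation with forskolin plus genistein in Cl⁻-free medium. Potentiators: cells held 24 h at 27 °C, compound added in Cl⁻-free medium, 2-10 μM forskolin 22 s later (final Cl⁻ 28 mM).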

T1 sequence (P13569 with tags, fused parts or gaps DEL508-508): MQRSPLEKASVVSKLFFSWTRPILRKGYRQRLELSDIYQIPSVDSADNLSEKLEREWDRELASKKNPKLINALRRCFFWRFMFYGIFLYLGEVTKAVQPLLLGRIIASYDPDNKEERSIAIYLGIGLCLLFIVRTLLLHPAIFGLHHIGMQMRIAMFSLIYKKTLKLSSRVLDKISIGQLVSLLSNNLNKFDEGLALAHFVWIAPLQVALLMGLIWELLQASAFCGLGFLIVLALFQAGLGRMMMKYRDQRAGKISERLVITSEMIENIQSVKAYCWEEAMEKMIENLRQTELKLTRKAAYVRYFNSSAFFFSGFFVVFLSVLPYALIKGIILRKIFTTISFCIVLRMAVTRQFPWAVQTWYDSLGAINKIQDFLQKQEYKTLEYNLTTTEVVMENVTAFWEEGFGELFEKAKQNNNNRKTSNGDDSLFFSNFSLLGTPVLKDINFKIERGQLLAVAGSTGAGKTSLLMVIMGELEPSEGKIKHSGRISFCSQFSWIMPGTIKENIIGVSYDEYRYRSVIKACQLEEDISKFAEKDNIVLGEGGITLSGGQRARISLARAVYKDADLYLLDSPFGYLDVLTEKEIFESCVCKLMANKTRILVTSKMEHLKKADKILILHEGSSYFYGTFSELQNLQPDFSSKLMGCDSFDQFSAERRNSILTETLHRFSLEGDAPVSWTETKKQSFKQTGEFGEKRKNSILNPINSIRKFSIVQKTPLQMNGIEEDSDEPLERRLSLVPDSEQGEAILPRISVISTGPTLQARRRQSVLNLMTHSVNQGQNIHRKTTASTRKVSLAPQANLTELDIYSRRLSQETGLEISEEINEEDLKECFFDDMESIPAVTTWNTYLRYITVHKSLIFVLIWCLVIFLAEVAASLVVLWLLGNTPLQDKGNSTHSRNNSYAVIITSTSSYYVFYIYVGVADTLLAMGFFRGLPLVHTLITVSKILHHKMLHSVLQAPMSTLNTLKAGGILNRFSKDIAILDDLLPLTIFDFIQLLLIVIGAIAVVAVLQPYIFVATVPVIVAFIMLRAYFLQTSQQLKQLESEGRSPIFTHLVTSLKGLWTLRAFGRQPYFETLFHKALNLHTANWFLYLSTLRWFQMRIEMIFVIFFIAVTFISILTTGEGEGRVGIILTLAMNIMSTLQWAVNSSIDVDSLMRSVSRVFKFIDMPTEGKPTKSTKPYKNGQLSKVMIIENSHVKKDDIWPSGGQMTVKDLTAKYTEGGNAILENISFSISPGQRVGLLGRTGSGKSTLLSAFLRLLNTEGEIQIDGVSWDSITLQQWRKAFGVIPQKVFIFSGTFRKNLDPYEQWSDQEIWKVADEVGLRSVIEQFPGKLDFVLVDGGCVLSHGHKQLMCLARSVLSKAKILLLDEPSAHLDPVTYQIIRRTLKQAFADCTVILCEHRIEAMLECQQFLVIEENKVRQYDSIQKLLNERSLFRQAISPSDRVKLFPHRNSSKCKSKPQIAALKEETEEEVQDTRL

SMILES | % Activity | EC50 [µM]
Cc1ccc(C(=O)Nc2nc(-c3ccc(C)cc3)cs2)cc1 [compound 47] | ++ (“++” means between 25% to 100%) | 10 to 25
O=C(Nc1nc(-c2cccs2)cs1)c1cccc(Br)c1 [compound 9] | ++ (“++” means between 25% to 100%) | < 10
O=C(Nc1nc(-c2ccccc2)cs1)c1cccc(Cl)c1 [compound 53] | +++ (“+++” means >100%) | < 10
O=C(Nc1nc(-c2ccccc2)c(-c2ccccc2)s1)c1ccc(Cl)cc1 [compound 74] | ++ (“++” means between 25% to 100%) | 10 to 25
CCC(C(=O)Nc1nc2ccc(C)cc2s1)c1ccccc1 (stereo not drawn) [compound 24] | +++ (“+++” means >100%) | 10 to 25
CCCC(=O)Nc1nc(-c2ccccc2)c(-c2ccccc2)s1 [compound 108] | ++ (“++” means between 25% to 100%) | < 10
CCCCc1ccc(C(=O)Nc2nc3ccccc3s2)cc1 [compound 12] | +++ (“+++” means >100%) | < 10
N#CCC(=O)Nc1ncc(Cc2cccc(Cl)c2)s1 [compound 36] | ++ (“++” means between 25% to 100%) | 10 to 25
O=C(Nc1nc(-c2ccccc2)cs1)C1CCCCC1 [compound 55] | ++ (“++” means between 25% to 100%) | 10 to 25
COc1cccc(C(=O)Nc2nc(-c3cccc(OC)c3)cs2)c1 [compound 82] | ++ (“++” means between 25% to 100%) | 10 to 25
O=C(Nc1nc(-c2ccccc2)cs1)c1ccccc1 [compound 21] | ++ (“++” means between 25% to 100%) | 10 to 25
COc1cccc(C(=O)Nc2nc(-c3ccccc3OC)cs2)c1 [compound 7] | +++ (“+++” means >100%) | 10 to 25
O=C(Nc1ncc(Cc2cccc(Cl)c2Cl)s1)C1CC1 [compound 22] | ++ (“++” means between 25% to 100%) | 10 to 25

Continued, values first:

% Activity | EC50 [µM] | SMILES
++ (“++” means between 25% to 100%) | 25 to 60 | CCC(C(=O)Nc1nc2c(s1)C(=O)CCC2)c1ccccc1 (stereo not drawn) [compound 289]
++ (“++” means between 25% to 100%) | 25 to 60 | CCOC(=O)C1CCCCN1C(C(=O)Nc1ncc(Cc2ccccc2Cl)s1)c1ccccc1 (stereo not drawn) [compound 253]
++ (“++” means between 25% to 100%) | < 10 | CCC(C(=O)Nc1ncc(Cc2ccccc2Cl)s1)N1CCSCC1 (stereo not drawn) [compound 224]
+++ (“+++” means >100%) | < 10 | O=C(Nc1ncc(Cc2cccc(Cl)c2)s1)C1c2ccccc2Oc2ccccc21 [compound 131]
+++ (“+++” means >100%) | < 10 | CCC(C)C(C(=O)Nc1ncc(Cc2ccc(Cl)cc2)s1)c1ccccc1 (stereo not drawn) [compound 121]
++ (“++” means between 25% to 100%) | 25 to 60 | CCC(=O)Nc1ncc(Cc2ccccc2Cl)s1 [compound 208]
++ (“++” means between 25% to 100%) | 10 to 25 | O=C(Nc1ncc(Cc2ccccc2Cl)o1)C(c1ccccc1)C1CCCC1 (stereo not drawn) [compound 192]
++ (“++” means between 25% to 100%) | < 10 | O=C(Nc1ncc(Cc2ccccc2)s1)C(c1ccccc1)C1CCCCC1 (stereo not drawn) [compound 139]
++ (“++” means between 25% to 100%) | < 10 | COc1ccccc1Cc1cnc(NC(=O)C2c3ccccc3-c3ccccc32)s1 [compound 133]
+++ (“+++” means >100%) | < 10 | O=C(Nc1ncc(Cc2ccc(Cl)cc2)s1)C(c1ccccc1)C1CCCCC1 (stereo not drawn) [compound 117]
++ (“++” means between 25% to 100%) | 10 to 25 | Cc1cccc(C(=O)Nc2ncc(-c3ccccc3)s2)c1 [compound 226]
++ (“++” means between 25% to 100%) | 10 to 25 | COc1ccccc1Cc1cnc(NC(=O)C(c2ccccc2)C2CCCCC2)o1 (stereo not drawn) [compound 179]
++ (“++” means between 25% to 100%) | < 10 | CCN(C)C(C(=O)Nc1ncc(Cc2ccccc2Cl)s1)c1ccccc1 (stereo not drawn) [compound 239]
++ (“++” means between 25% to 100%) | < 10 | O=C(Nc1ncc(Cc2ccccc2Cl)s1)C(c1ccccc1)N1CCCC1 (stereo not drawn) [compound 241]
++ (“++” means between 25% to 100%) | < 10 | CCC(C)C(C(=O)Nc1nc(-c2ccccc2)c(-c2ccccc2)s1)c1ccccc1 (stereo not drawn) [compound 176]
++ (“++” means between 25% to 100%) | 25 to 60 | O=C(Nc1ncc(-c2ccccc2)s1)c1cccc(Cl)c1 [compound 233]
++ (“++” means between 25% to 100%) | < 10 | O=C(Nc1ncc(Cc2ccc(Cl)cc2)o1)C(c1ccccc1)C1CCCCC1 (stereo not drawn) [compound 142]
